Square brackets hold non-standard residues; d marks the D form. Peptide text beside a SMILES is read from it. * marks the point of attachment. Met(O2) = CS(=O)(=O)CC[C@H](N)C(=O)O; Fmoc = O=C(OCC1c2ccccc2-c2ccccc21)*; Orn = NCCC[C@H](N)C(=O)O; Thz = O=C(O)[C@@H]1CSCN1; Abu = CC[C@H](N)C(=O)O; Aib = CC(C)(N)C(=O)O; GABA = NCCCC(=O)O
system: Human red blood cells (RBCs); test: Hemolytic activity; format: cell-based; conditions: Table 20, lower part
Experimental: Each assay was carried out in 96-well culture tissue plates. Four wells per plate contain 125 μl of a non-peptide positive control (1% Triton in de-ionized water), and four wells per plate contain 125 μl of a control blank, phosphate buffered saline (PBS). The hemolytic peptide melittin was used as comparative control. The controls served to detect possible contamination and to calculate the percent hemolysis of each peptide. Human red blood cells (RBCs) were washed with PBS and centrifuged to separate them from the serum. The cells were then resuspended in PBS to a final suspension of 0.5% RBC. 125 μl of this suspension was added to the peptides and controls solution. The release of hemoglobin resulting from the cell lysis was determined by measuring the OD at 414 nm of 100 μl of the supernatant.

In order of falling “HD50 (concentration necessary to lyse 50% of the cells)” value:
1. NCCCC[C@H](NC(=O)OCC1c2ccccc2-c2ccccc21)C(=O)N[C@@H](Cc1c[nH]c2ccccc12)C(=O)N[C@H](Cc1ccccc1)C(=O)N[C@@H](CCCN)C(N)=O [(KFmoc)Wf(Orn)-NH2] (Fmoc-KW[dF][Orn]-NH2)  64 μg/m
2. CS(=O)(=O)CC[C@H](NC(=O)[C@@H](Cc1ccccc1)NC(=O)[C@H](Cc1c[nH]c2ccccc12)NC(=O)[C@H](CCCCN)NC(=O)OCC1c2ccccc2-c2ccccc21)C(N)=O [(KFmoc)Wf(MetO2)-NH2] (Fmoc-KW[dF][Met(O2)]-NH2)  44 μg/m

same assay, conditions: Tables 18-21

In order of rising “HD50 (concentration necessary to lyse 50% of the cells)” value:
1. CC[C@H](NC(=O)[C@H](NC(=O)[C@@H](CS)NC(=O)[C@H](CCCCN)NC(=O)OCC1c2ccccc2-c2ccccc21)[C@H](C)CC)C(N)=O [(KFmoc)ci(aABA)-NH2] (Fmoc-K[dC][dI][Abu]-NH2)  29 µg/mL
2. NCCCC[C@H](NC(=O)OCC1c2ccccc2-c2ccccc21)C(=O)N[C@@H](Cc1c[nH]c2ccccc12)C(=O)N[C@H](Cc1ccccc1)C(=O)N[C@H](Cc1c[nH]c2ccccc12)C(N)=O [(KFmoc)Wfw-NH2] (Fmoc-KW[dF][dW]-NH2)  36 µg/mL
3. NCCCC[C@H](NC(=O)OCC1c2ccccc2-c2ccccc21)C(=O)N[C@@H](Cc1c[nH]c2ccccc12)C(=O)N[C@@H](CCCCN)C(=O)N[C@@H](Cc1c[nH]c2ccccc12)C(N)=O [(KFmoc)WKW-NH2] (Fmoc-KWKW-NH2)  37 µg/mL
4. NCCCC[C@H](NC(=O)OCC1c2ccccc2-c2ccccc21)C(=O)N[C@@H](Cc1c[nH]c2ccccc12)C(=O)N[C@H](Cc1ccccc1)C(=O)N1CCC[C@H]1C(N)=O [(KFmoc)WfP-NH2] (Fmoc-KW[dF]P-NH2)  40 µg/mL
5. N=C(N)NCCC[C@H](NC(=O)[C@H](Cc1ccc(O)cc1)NC(=O)[C@H](Cc1c[nH]c2ccccc12)NC(=O)[C@H](CCCCN)NC(=O)OCC1c2ccccc2-c2ccccc21)C(N)=O [(KFmoc)WYR-NH2] (Fmoc-KWYR-NH2)  45 µg/mL
6. CC[C@@H](C)[C@@H](NC(=O)[C@@H](CS)NC(=O)[C@H](CCCCN)NC(=O)OCC1c2ccccc2-c2ccccc21)C(=O)NCCCC(N)=O [(KFmoc)ci(gABA)-NH2] (Fmoc-K[dC][dI][GABA]-NH2)  54 µg/mL
7. NCCCC[C@H](NC(=O)OCC1c2ccccc2-c2ccccc21)C(=O)N[C@@H](Cc1c[nH]c2ccccc12)C(=O)N[C@@H](Cc1ccc(O)cc1)C(=O)N[C@@H](CCCN)C(N)=O [(KFmoc)WY(Orn)-NH2] (Fmoc-KWY[Orn]-NH2)  62 µg/mL
8. CC[C@@H](C)[C@@H](NC(=O)[C@@H](CS)NC(=O)[C@H](CCCCN)NC(=O)OCC1c2ccccc2-c2ccccc21)C(=O)N[C@@H](C)C(N)=O [(KFmoc)ciA-NH2] (Fmoc-K[dC][dI]A-NH2)  68 µg/mL
9. CC(C)C[C@H](NC(=O)[C@H](CCCCN)NC(=O)[C@H](Cc1c[nH]c2ccccc12)NC(=O)[C@H](CCCCN)NC(=O)OCC1c2ccccc2-c2ccccc21)C(N)=O [(KFmoc)WKL-NH2] (Fmoc-KWKL-NH2)  73 µg/mL
10. CC[C@@H](C)[C@@H](NC(=O)[C@@H](CS)NC(=O)[C@H](CCCCN)NC(=O)OCC1c2ccccc2-c2ccccc21)C(=O)N[C@@H](CCCN)C(N)=O [(KFmoc)ci(Orn)-NH2] (Fmoc-K[dC][dI][Orn]-NH2)  77 µg/mL
11. CSCC[C@H](NC(=O)[C@H](CCCCN)NC(=O)[C@H](Cc1c[nH]c2ccccc12)NC(=O)[C@H](CCCCN)NC(=O)OCC1c2ccccc2-c2ccccc21)C(N)=O [(KFmoc)WKM-NH2] (Fmoc-KWKM-NH2)  102 µg/mL
12. NCCCC[C@H](NC(=O)OCC1c2ccccc2-c2ccccc21)C(=O)N[C@@H](Cc1c[nH]c2ccccc12)C(=O)N[C@@H](CCCCN)C(=O)N1CSC[C@H]1C(N)=O [(KFmoc)WK(Thiopro)-NH2] (Fmoc-KWK[Thz]-NH2)  108 µg/mL
13. NCCCC[C@H](NC(=O)OCC1c2ccccc2-c2ccccc21)C(=O)N[C@@H](Cc1c[nH]c2ccccc12)C(=O)N[C@@H](Cc1ccc(O)cc1)C(=O)N[C@@H](Cc1c[nH]cn1)C(N)=O [(KFmoc)WYH-NH2] (Fmoc-KWYH-NH2)  139 µg/mL
14. CC[C@H](C)[C@H](NC(=O)[C@H](CCCCN)NC(=O)[C@H](Cc1c[nH]c2ccccc12)NC(=O)[C@H](CCCCN)NC(=O)OCC1c2ccccc2-c2ccccc21)C(N)=O [(KFmoc)WKI-NH2] (Fmoc-KWKI-NH2)  141 µg/mL
15. NCCCC[C@H](NC(=O)OCC1c2ccccc2-c2ccccc21)C(=O)N[C@@H](Cc1c[nH]c2ccccc12)C(=O)N[C@@H](CCCCN)C(=O)N[C@@H](Cc1ccc(O)cc1)C(N)=O [(KFmoc)WKY-NH2] (Fmoc-KWKY-NH2)  156 µg/mL
16. CC[C@H](C)[C@H](NC(=O)[C@@H](Cc1ccccc1)NC(=O)[C@H](Cc1c[nH]c2ccccc12)NC(=O)[C@H](CCCCN)NC(=O)OCC1c2ccccc2-c2ccccc21)C(N)=O [(KFmoc)WfI-NH2] (Fmoc-KW[dF]I-NH2)  208 µg/mL
17. C[C@H](NC(=O)[C@H](CCCCN)NC(=O)[C@H](Cc1c[nH]c2ccccc12)NC(=O)[C@H](CCCCN)NC(=O)OCC1c2ccccc2-c2ccccc21)C(N)=O [(KFmoc)WKA-NH2] (Fmoc-KWKA-NH2)  378 µg/mL
18. N=C(N)NCCC[C@H](NC(=O)[C@H](CCCCN)NC(=O)[C@H](Cc1c[nH]c2ccccc12)NC(=O)[C@H](CCCCN)NC(=O)OCC1c2ccccc2-c2ccccc21)C(N)=O [(KFmoc)WKR-NH2] (Fmoc-KWKR-NH2)  387 µg/mL
19. CC[C@@H](C)[C@@H](NC(=O)[C@@H](CS)NC(=O)[C@H](CCCCN)NC(=O)OCC1c2ccccc2-c2ccccc21)C(=O)N[C@@H](CS)C(N)=O [(KFmoc)ciC-NH2] (Fmoc-K[dC][dI]C-NH2)  400 µg/mL
20. CC(C)(NC(=O)[C@H](CCCCN)NC(=O)[C@H](Cc1c[nH]c2ccccc12)NC(=O)[C@H](CCCCN)NC(=O)OCC1c2ccccc2-c2ccccc21)C(N)=O [(KFmoc)WK(aAIB)-NH2] (Fmoc-KWK[Aib]-NH2)  447 µg/mL
21. NCCCC[C@H](NC(=O)OCC1c2ccccc2-c2ccccc21)C(=O)N[C@@H](Cc1c[nH]c2ccccc12)C(=O)N[C@@H](CCCCN)C(=O)NCC(N)=O [(KFmoc)WKG-NH2] (Fmoc-KWKG-NH2)  449 µg/mL
22. NCCCC[C@H](NC(=O)[C@H](CCCCN)NC(=O)[C@H](Cc1c[nH]c2ccccc12)NC(=O)[C@H](CCCCN)NC(=O)OCC1c2ccccc2-c2ccccc21)C(N)=O [(KFmoc)WKK-NH2] (Fmoc-KWKK-NH2)  469 µg/mL
23. NCCCC[C@H](NC(=O)OCC1c2ccccc2-c2ccccc21)C(=O)N[C@@H](Cc1c[nH]c2ccccc12)C(=O)N[C@@H](Cc1ccc(O)cc1)C(=O)N1CSC[C@H]1C(N)=O [(KFmoc)WY(Thiopro)-NH2] (Fmoc-KWY[Thz]-NH2)  488 µg/mL

Reference: US5440016A, “Peptides of the formula (KFmoc) ZZZ and their uses” (priority 1993, dated 1995)
